Data reported in patent publication US20250129370A1, “METHOD FOR REDUCING HEPATIC TRIGLYCERIDES” (ADAERATA, LIMITED PARTNERSHIP, priority 2022, published 2025).

Tests used:
[1] = system: mutated form of PCSK7 3′-UTR; experiment: Luciferase reporter assay, miRNA target site-deleted PCSK7 3′-UTR, HEK293T cells; format: cell-based, human
From the text: The interactions between the miRNAs and their probable targets on PCSK7 were explored by cloning the potential target regions in psiCHECK-2™ (Promega, USA), a luciferase reporter vector. In psiCHECK-2™, hRluc, the Renilla luciferase gene, is located upstream of the target regions of interest cloned into the psiCHECK-2™ vector downstream of the Renilla gene. The region corresponding to the 3′-UTR of PCSK7 (926-nt sequences in length) that constituted the predicted miRNA response elements was PCR-amplified and cloned downstream of the Renilla luciferase gene in the psiCHECK-2™ vector (Promega, USA). For the confirmation of whether miRNA response elements (miRNA target sites) on the 3′-UTR of PCSK7 were active and had direct interactions with the miRNAs, different mutants (plasmids) were constructed via splicing by over-hang-extension (SOEing) PCR. For miR-125a-5p and miR-143-3p, each of which has two miRNA response elements on PCSK7 3′-UTR, three different mutant constructs were built. Two constructs were made by deleting a putative miRNA target site, and the third one was made by omitting both putative miRNA target sites in the 3′-UTR sequence of PCSK7. In the miR-409-3p mutant construct, a putative miRNA target site was deleted from the 3′-UTR sequence.
The HEK293T cells were co-transfected through the application of the wild-type psiCHECK-2, the wild-type PCSK7 3′-UTR, the mutant PCSK7 3′-UTR, and the miR-overexpressing vectors so that the direct interactions of the nominated miRNAs with PCSK7 3′-UTR could be investigated. In brief, 150 ng of the wild-type or mutated 3′-UTR constructs and 300 ng of the miRNA-expressing vectors were co-transfected in HEK293T-cultured 48-well plates using FuGENE™ (Invitrogen, USA). Additionally, the psiCHECK-2 and pEGFP-C1 mock vectors were transfected and utilized as controls for luciferase assay and transfection, respectively. Transfection efficiency was monitored by fluorescent microscopy (Nikon TE2000S, Japan) 36 hours following the procedure.
The PsiCHECK-2 reporter construct plasmid contained the Renilla luciferase gene upstream of PCSK7 3′-UTR and an independent firefly luciferase gene as an internal control for normalization. Forty-eight hours after HEK293T co-transfection, the luciferase reporter assay was carried out employing the Dual-Luciferase Reporter Assay System (Promega, USA) with a luminometer (Titertek-Berthold, Germany) in accordance with the manufacturer's protocol. Each sample was performed in triplicate, and the experiment was repeated at least three biological times. In short, a lysis buffer was added to each well after the removal of the media of the cell. Then, LARII Reagent was added, and after 20 minutes, the firefly luciferase activity was measured as a control. Afterward, Renilla activity was determined using Stop & Glo Reagent. The relative luciferase activity was calculated using the following formula: ΔFold Activity of Luciferase (Renilla/Firefly)=Average Renilla/Firefly from Samples A/B.
A luciferase reporter assay further confirmed that miR-125a-5p, miR-143-3p, and miR-409-3p directly targeted the 3′-UTR of the PCSK7 transcript since the negative regulatory effect was lost upon the deletion of the miRNA target sites (miR-125a-5p, miR-143-3p, and miR-409-3p) on the 3′-UTR of the PCSK7 reporter plasmid (FIGS. 28A-B). In this regard, three different mutated miR plasmids were constructed for both miR-125a-5p and miR-143-3p. Single-target sites of each miRNA were omitted individually in two separate plasmids, and the two putative binding sites of the miRNAs were deleted in the other plasmid.

[2] = system: human PC7; experiment: Western blot of overexpressed PC7 protein in Huh7 cells co-transfected with miRNA vectors; format: cell-based
Method: In the next step, the effect of miR-125a-5p on PC7 function was determined. First, the miR-125a-5p-overexpressing vector and its related mock plasmids were co-transfected with the pIRES vector (Invitrogen, USA), containing the full length of cDNA encoding the PCSK7 mRNA with the complete 3′-UTR in Huh7 cells. The western blot analysis was performed 48 hours after transfection. Thereafter, the impact of miR-125a-5p on the enzymatic function of PC7 was assessed by co-transfecting Huh7 cells with the miR-125a-5p-overexpressing vector, with that coding for the full length of PCSK7, and a plasmid encoding hTfR1 (Guillemot et al., 2013; Durand et al., 2020). […]
Subsequently, proteins were isolated with an ice-cold RIPA buffer (1×), comprising 50 mM of Tris hydrochloride (pH 8), 150 mM of sodium chloride, 0.1% sodium dodecyl sulfate, 1% Nonidet P40, 0.25% sodium deoxycholate, and a cocktail of protease inhibitors (Roche, Oakville, ON, Canada). […] Both PC7 and TfR1 were C-terminally tagged with V5 and detected with a V5-monoclonal antibody (Invitrogen) and membranes were incubated with appropriate primary and secondary antibodies, as reported (Guillemot et al., 2013). Subsequently, immunoreactive bands (the signal) were visualized with an enhanced chemiluminescent reaction kit (Bio-Rad, USA) and recorded via chemiluminescence. […]

Substance: miR-125a-5p: miRNA targeting PCSK7 3′-UTR and exons 14 and 15, overexpressed from pEGFP-C1 precursor vector (UCCCUGAGACCCUUUAACCUGUGA; miRNA expressed from a pEGFP-C1 precursor vector, further chemistry not given here)
- relative luciferase activity ([1]; Mut-a, deletion of the first target site): still decreased
- relative luciferase activity ([1]; Mut-a,b, deletion of both miRNA target sites): failed to significantly decrease
- relative luciferase activity ([1]; Mut-b, deletion of the second target site): still decreased
- fall of overexpressed PC7 protein levels ([2]; Huh7, 48 hours post-transfection, vs mock (pEGFP-C1) and miR-224-5p controls): ~80%
- decrease of PC7 protein levels ([2]; Huh7, PC7:miR-125a-5p DNA ratios 1:2, 1:3 and 1:5, all three ratios): > 80%
